# Results published in patent publication US20240317691A1, “Compounds for Modulating Epithelial 15-(S)-Lipoxygenase-2 and Methods of Use for Same” (The Regents of the University of California, priority 2021, published 2024).
# “And” between values parts separate entries of the source, which are not always exact repeats. Equal entries are not always repeated. Where two headings read alike, the source gives them in different places.
# How the values were obtained:
# h15-LOX-2 [1] = target: T1, h15-LOX-2 (Homo sapiens (Human), UniProt O15296); experiment: Lipoxygenase UV-Vis-based IC50 assay, h15-LOX-2; settings: for inhibition at 20 µM: read-out: % Inhibition at 20 μM; for potency against h15-LOX-2, SAR statement: compared with original hits
# Protocol: (§3) The full IC50 experiments were done with at least five different inhibitor concentrations. All reaction mixtures were 2 mL in volume and constantly stirred using a magnetic stir bar at room temperature (23° C.) with the appropriate amount of LOX isozyme [h5-LOX (˜200 nM); h12-LOX (˜50 nM); h15-LOX-1 (˜60 nM); h15-LOX-2 (˜200 nM)]. […] Reactions with h12-LOX were carried out in 25 mM HEPES (pH 8.0) 0.01% Triton X-100 and 10 μM AA. Reactions with the crude, ammonium sulfate precipitated h5-LOX were carried out in 25 mM HEPES (pH 7.3), 0.3 mM CaCl2), 0.1 mM EDTA, 0.2 mM ATP, 0.01% Triton X100 and 10 μM AA. Reactions with h15-LOX-1 and h15-LOX-2 were carried out in 25 mM HEPES buffer (pH 7.5), 0.01% Triton X-100 and 10 μM AA. […] IC50 values were obtained by determining the percent inhibition at various inhibitor concentrations and plotting against inhibitor concentration, followed by a hyperbolic saturation curve fit. The percent inhibition was calculated by comparing the enzymatic rate of the control (DMSO) to the enzymatic rate with the respective inhibitor present. The experiments used for generating the saturation curves were performed in duplicate or triplicate, depending on the quality of the data.
# h15-LOX-2 [2] = target: T1, h15-LOX-2; experiment: Hydrogen/deuterium exchange mass spectrometry of h15-LOX-2; settings: 20 μM inhibitor
# Protocol: Samples were incubated randomly at 10 time points (0, 10, 20, 45, 60, 180, 600, 1800, 3600, and 7200 s) at 25° C. using a water bath. For each given temperature and mutant, the time points (samples) were collected over the course of three to four days and randomized to reduce systematic error. Each sample (from a unique time point) was prepared and processed once. For the samples containing inhibitors, the inhibitor was added (20 μM final concentration) to the protein stock solution (at least one minute) prior to D2O addition. The specific inhibitor was also added to the D2O buffer at a final concentration of 20 μM prior to the exchange experiment.
# Procedures from this point were conducted near 4° C. Prior to pepsin digestion, guanidine HCl (in citric acid, pH 2.4) was mixed with the samples to a final concentration of ca. 0.5 M. This solution contained DTT to the final concentration of 5 mM. […]
# Deuterated, pepsin-digested samples of 15-LOX-2 were analyzed using an Agilent 1200 LC (Santa Clara, CA) that was connected in-line with the LTQ Orbitrap XL mass spectrometer (Thermo). Mass spectral data acquired for HDX measurements were analyzed using the software, HDX WorkBench. The percent deuterium incorporation was calculated for each of these peptides, taking into account the number of amide linkages (excluding proline residues) and the calculated number of deuterons incorporated. […]
# [3] = target: h15-LOX-2 expressed in HEK293T cells (Homo sapiens (Human), UniProt O15296); experiment: Inhibition of h15-LOX-2 in HEK293T cells (15-HETE production); format: cell-based; settings: h15-LOX-2/HEK293T cells, exogenous AA, triplicate
# Protocol: HEK293T cells over-expressing h15-LOX-2 were grown in MEM (Gibco) with 10% FBS (Gibco), 2 mM glutamine (Sigma), 100U/mL of penicillin/streptomycin (Gibco) and 640 μg/ml G418 sulfate (Fisher) as a selection agent. Cells were harvested at 90% confluence with trypsin-EDTA (Gibco) and washed once with MEM with 10% FBS. Cells were then washed with 0.1% glucose (Fisher) in PBS (Gibco). Cells were then diluted in 0.1% glucose in PBS to a concentration of 1 million cells/mL. Cells were treated with DMSO (0.2%) or inhibitor in DMSO and incubated at 37° C. for 20 min. Cells were then stimulated with 100 uM CaCl2) (Sigma), 5 μM Ca Ionophore A23187 (Sigma), and 1 μM arachidonic acid (NuCheck) for 10 min at 37° C. Cells were then acidified to 40 uM HCl and snap-frozen in liquid nitrogen.
# h15-LOX-2 [4] = target: T1, h15-LOX-2; experiment: Steady-state inhibition kinetics of h15-LOX-2; format: biochemical
# Protocol: Reactions were initiated by adding h15-LOX-2 to a constantly stirring 2 mL reaction mixture containing 0.7 μM-20 μM AA in 25 mM HEPES buffer (pH 7.5), in the presence of 0.01% Triton X-100. Kinetic data were obtained by recording initial enzymatic rates, at varied inhibitor concentrations, and subsequently fitting the data to the Henri-Michaelis-Menten equation using KaleidaGraph (Synergy) to determine Vmax (μmol/min) and Km (μM). The primary data were then plotted in Dixon format using Microsoft Excel by graphing 1/v vs. [I] μM at the chosen substrate concentrations. From the Dixon plots, the slope at each substrate concentration was extracted and plotted against 1/[S] μM to produce the Dixon replots. The Kic equilibrium constant of dissociation was calculated by dividing Km/Vmax by the slope of the replot. To obtain Kiu, 1/Vmax was divided by the y-intercept of the replot. Kic and Kiu are defined as the equilibrium constant of dissociation from the catalytic and secondary sites, respectively.
# h15-LOX-2 [5] = target: T1, h15-LOX-2; experiment: Pseudo-peroxidase activity assay (redox); format: biochemical; settings: 20 μM inhibitor, degradation of 13-HpODE at 234 nm; more than 25% degradation indicates redox activity
# Protocol: 13-HpODE was used as the oxidant and BWb70c as the positive control. […] The reaction mixtures were constantly stirred at 23° C. […] The negative controls used were: enzyme alone with the product, enzyme alone with inhibitor, as well as inhibitor alone with the product. These formed a baseline for the assay, reflecting non-pseudo-peroxidase dependent hydroperoxide product decomposition. To rule out the auto-inactivation of the enzyme from pseudo-peroxidase cycling, the h15-LOX-2 residual activity was determined by the addition of 20 μM AA at the end of each reaction.
# h15-LOX-1 = h15-LOX-1 (Homo sapiens (Human), UniProt P16050); experiment: Lipoxygenase UV-Vis-based assay, h15-LOX-1 selectivity
# Protocol: as §3
# h12-LOX = h12-LOX (Homo sapiens (Human), UniProt P18054); experiment: Lipoxygenase UV-Vis-based assay, h12-LOX selectivity
# Protocol: as §3
# h15-LOX-2 [6] = target: T1, h15-LOX-2; experiment: Inhibitors as substrates of h15-LOX-2 (UV-Vis and RP-HPLC); format: biochemical; settings: 20 μM inhibitor, absence of AA
# Protocol: All buffer conditions and the determination of each rate are identical to the UV-Vis assay as described above. 20 μM of each inhibitor was reacted with h15-LOX-2 in 2 mL reaction mixtures in the absence of AA. Controls included DMSO (vehicle), 10 μM AA, and enzyme. All reactions were conducted on a Perkin Elmer Lambda 40 UV/Vis spectrophotometer. […] Each reaction mixture was subsequently extracted and analyzed via RP-HPLC using a Higgins HAIsiL analytical column. […] Retention times and absorbance spectra of each of the reactions were compared to spectra of the controls.
# ovine COX-1 = ovine COX-1 (Ovis aries (Sheep), UniProt P05979); experiment: Cyclooxygenase selectivity assay, COX-1; format: biochemical; settings: estimated at 25 μM inhibitor concentration, 100 μM AA
# Protocol: (§1) Cyclooxygenase selectivity assay was performed as previously described.^24 Approximately 3 μg of either ovine COX-1 (COX-1) or human recombinant COX-2 (COX-2) (Cayman Chemical) were added to buffer containing 0.1 M Tris-HCl buffer (pH 8.0), 5 mM EDTA, 2 mM phenol, and 1 μM hemin at 37° C. […] The reaction was then initiated by adding approximately 100 μM AA in the reaction cell, as indicated in the enzymatic protocol (Cayman Chemicals). A Hansatech DWI oxygen electrode was utilized for data collection and the consumption of oxygen was recorded.
# (§2) Indomethacin and the vehicle of inhibitor (DMSO) were the positive and negative controls, respectively. The percent inhibition of the enzyme was calculated by comparing the rates of O2 consumption for experimental samples (with inhibitor) to the rates of control samples (with DMSO).
# h5-LOX = h5-LOX (Homo sapiens (Human), UniProt P09917); experiment: Lipoxygenase UV-Vis-based assay, h5-LOX selectivity
# Protocol: as §3
# human recombinant COX-2 = human recombinant COX-2 (Homo sapiens (Human), UniProt P35354); experiment: Cyclooxygenase selectivity assay, COX-2; format: biochemical; settings: estimated at 25 μM inhibitor concentration, 100 μM AA
# Protocol: as §1, §2
# [7] = read-out: IC50 (μM) (± SD), h15-LOX-2 SAR study, 10 μM AA, 0.01% TritonX-100
# [8] = read-out: IC50 (μM) (± SD (μM)), h15-LOX-2, 10 μM AA, duplicate
# [9] = equilibrium constant of dissociation from the catalytic site, Dixon replot, 0.01% Triton X-100, read-out: Kic
# [10] = read-out: h15-LOX-2 IC50, experimental values repeated in docking table
# [11] = read-out: h15-LOX-2 IC50, full IC50 experiment, 10 μM AA, duplicate
# T1 sequence (O15296 whole entry): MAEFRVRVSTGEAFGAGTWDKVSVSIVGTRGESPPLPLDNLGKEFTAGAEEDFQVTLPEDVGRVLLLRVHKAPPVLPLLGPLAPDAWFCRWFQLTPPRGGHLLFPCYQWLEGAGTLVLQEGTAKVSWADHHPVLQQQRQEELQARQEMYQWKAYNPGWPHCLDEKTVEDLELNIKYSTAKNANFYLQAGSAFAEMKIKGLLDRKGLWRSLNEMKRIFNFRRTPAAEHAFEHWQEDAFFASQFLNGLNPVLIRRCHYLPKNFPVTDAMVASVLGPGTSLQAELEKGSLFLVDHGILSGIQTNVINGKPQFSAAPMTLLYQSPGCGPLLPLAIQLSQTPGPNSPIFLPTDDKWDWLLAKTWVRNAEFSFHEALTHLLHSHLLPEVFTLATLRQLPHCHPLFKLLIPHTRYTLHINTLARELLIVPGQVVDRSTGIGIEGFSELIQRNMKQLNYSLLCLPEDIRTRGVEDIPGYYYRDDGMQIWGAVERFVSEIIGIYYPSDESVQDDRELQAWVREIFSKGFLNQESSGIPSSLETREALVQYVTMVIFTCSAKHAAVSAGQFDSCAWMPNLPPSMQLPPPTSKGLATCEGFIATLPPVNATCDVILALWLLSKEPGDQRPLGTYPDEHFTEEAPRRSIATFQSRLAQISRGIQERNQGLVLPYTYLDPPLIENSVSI
# h15-LOX-2 expressed in HEK293T cells, sequence (O15296 whole entry): as above
# human recombinant COX-2, sequence (P35354 18-604): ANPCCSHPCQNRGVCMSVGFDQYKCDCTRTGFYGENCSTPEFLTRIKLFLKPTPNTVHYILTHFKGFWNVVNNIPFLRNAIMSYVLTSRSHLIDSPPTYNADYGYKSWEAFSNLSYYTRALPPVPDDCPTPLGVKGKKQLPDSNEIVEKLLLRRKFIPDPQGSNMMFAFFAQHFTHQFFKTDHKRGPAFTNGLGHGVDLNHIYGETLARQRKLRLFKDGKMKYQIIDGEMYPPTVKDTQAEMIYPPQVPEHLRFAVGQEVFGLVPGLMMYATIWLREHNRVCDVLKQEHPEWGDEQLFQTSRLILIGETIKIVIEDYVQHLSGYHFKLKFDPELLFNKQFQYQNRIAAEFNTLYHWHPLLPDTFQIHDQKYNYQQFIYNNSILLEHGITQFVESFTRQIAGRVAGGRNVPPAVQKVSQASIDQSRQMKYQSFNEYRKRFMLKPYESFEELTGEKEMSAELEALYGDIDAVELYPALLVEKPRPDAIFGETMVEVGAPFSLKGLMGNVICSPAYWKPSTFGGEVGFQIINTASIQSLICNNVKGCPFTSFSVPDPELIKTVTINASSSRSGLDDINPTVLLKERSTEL
# ovine COX-1, sequence (P05979 25-600): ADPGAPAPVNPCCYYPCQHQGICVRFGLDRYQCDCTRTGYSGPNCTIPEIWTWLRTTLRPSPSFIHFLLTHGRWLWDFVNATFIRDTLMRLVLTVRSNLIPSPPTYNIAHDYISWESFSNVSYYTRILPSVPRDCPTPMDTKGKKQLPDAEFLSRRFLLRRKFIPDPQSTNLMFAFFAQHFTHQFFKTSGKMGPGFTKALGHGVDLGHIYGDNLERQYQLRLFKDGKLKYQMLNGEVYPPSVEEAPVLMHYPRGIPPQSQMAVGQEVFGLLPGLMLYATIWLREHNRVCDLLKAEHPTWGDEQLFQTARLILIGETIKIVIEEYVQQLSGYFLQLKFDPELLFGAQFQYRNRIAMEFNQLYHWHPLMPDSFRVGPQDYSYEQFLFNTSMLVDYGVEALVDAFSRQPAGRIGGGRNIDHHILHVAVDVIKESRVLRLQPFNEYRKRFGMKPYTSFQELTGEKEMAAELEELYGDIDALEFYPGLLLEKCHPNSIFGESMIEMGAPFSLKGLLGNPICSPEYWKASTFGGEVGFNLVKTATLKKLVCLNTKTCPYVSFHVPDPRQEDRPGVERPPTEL
# h15-LOX-1, sequence (P16050 whole entry): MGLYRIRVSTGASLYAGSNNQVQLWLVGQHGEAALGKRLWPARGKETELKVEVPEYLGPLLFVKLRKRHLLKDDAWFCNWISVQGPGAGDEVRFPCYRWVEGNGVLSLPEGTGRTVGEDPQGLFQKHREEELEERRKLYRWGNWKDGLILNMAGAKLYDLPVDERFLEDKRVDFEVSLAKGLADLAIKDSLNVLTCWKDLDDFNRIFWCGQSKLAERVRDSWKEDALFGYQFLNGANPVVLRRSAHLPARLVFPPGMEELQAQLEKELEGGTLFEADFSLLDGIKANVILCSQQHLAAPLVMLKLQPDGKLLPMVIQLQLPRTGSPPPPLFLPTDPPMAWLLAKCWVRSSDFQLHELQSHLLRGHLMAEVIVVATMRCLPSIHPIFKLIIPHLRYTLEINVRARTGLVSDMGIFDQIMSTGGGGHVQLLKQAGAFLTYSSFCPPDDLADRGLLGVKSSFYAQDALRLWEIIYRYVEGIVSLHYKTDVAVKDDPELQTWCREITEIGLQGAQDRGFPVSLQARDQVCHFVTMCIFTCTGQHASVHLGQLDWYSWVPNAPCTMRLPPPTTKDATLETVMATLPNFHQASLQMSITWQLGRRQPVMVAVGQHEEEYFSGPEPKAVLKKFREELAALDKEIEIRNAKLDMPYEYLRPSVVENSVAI
# h5-LOX, sequence (P09917 whole entry, the tested form may be a part): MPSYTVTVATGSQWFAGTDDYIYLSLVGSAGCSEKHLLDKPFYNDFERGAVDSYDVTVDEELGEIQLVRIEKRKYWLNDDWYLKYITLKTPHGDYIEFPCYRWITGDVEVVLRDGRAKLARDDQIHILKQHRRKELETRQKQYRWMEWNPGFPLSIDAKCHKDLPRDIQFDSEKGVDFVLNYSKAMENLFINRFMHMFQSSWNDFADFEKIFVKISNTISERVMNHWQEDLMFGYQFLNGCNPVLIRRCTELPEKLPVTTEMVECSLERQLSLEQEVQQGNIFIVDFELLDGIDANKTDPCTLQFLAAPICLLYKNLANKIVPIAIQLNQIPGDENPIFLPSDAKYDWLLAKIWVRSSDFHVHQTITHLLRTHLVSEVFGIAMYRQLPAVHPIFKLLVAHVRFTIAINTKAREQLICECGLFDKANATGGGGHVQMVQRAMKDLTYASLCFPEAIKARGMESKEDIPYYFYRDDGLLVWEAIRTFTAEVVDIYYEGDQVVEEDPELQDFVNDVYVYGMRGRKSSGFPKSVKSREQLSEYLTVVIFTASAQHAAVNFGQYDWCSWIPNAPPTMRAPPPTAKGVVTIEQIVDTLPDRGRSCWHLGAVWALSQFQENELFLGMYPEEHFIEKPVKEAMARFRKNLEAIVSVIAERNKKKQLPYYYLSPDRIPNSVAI
# h12-LOX, sequence (P18054 whole entry, the tested form may be a part): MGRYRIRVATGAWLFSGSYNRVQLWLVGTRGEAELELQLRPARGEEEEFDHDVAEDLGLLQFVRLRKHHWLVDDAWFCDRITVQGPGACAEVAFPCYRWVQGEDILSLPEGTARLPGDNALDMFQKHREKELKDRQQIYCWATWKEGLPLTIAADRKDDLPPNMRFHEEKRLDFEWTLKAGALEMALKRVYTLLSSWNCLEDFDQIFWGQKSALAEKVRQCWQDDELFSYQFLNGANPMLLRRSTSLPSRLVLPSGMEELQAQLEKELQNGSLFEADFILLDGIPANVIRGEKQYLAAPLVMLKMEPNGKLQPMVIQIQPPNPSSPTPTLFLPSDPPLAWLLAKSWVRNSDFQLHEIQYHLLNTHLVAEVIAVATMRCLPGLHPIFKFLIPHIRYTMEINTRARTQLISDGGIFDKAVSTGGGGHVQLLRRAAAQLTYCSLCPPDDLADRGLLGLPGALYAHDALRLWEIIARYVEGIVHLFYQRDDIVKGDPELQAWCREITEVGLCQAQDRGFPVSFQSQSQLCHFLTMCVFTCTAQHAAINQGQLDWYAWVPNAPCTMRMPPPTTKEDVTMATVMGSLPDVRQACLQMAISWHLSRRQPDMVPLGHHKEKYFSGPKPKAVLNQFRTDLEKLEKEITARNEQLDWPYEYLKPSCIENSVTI
inhibition at 20 µM (h15-LOX-2 [1]) [%],IC50 (h15-LOX-2 [1]; [7]) [µM],SMILES,further results
97,0.27,"Cc1ccc(-n2ccnc2SCc2ccc(C(F)(F)F)cc2)cc1 [Compound 101, 1-(p-tolyl)-2-((4-(trifluoromethyl)benzyl)thio)-1H-imidazole]",
35,> 100,"Fc1ccc(CSc2nccn2-c2ccccc2)cc1 [Compound 102, 2-((4-fluorobenzyl)thio)-1-phenyl-1H-imidazole]",IC50 (h15-LOX-2 [1]; [8]): > 100 µM
84,2.3,"CSc1ccc(CSc2nccn2-c2ccccc2)cc1 [Compound 103, 2-((4-(methylthio)benzyl)thio)-1-phenyl-1H-imidazole]",IC50 (h15-LOX-2 [1]; [8]): 2.3 µM
23,> 100,"N#Cc1cc(CSc2nccn2-c2ccccc2)ccc1F [Compound 104, 2-fluoro-5-(((1-phenyl-1H-imidazol-2-yl)thio)methyl)benzonitrile]","potency against h15-LOX-2, SAR statement (h15-LOX-2 [1]): drastically decreased the potency"
100,0.34,FC(F)(F)c1ccc(CSc2nccn2-c2ccccc2)cc1 [Compound 105],"average HDX rate constants of peptides 173-184 and 184-191 in presence of inhibitor (h15-LOX-2 [2]; bi-exponential fits): 2—and 4-times slower; reduction in exchange of h15-LOX-2 peptides 173-184 and 184-191 (h15-LOX-2 [2]; short time scales (<10 min), 25° C.): ≤ 20%; EC50 [3]: ~1 µM and 0.75 µM; Ki (h15-LOX-2 [4]; Dixon replot of slope versus [Inhibitor], unit given as M, read-out: Kic (FIG. 2 legend)): 0.8 µM; Ki (h15-LOX-2 [4]; [9]): 0.7 µM; Redox (h15-LOX-2 [5]): No; IC50 (h15-LOX-1): > 50 µM; IC50 (h12-LOX): > 100 µM; enhanced inhibition over inhibitor 536924 (h15-LOX-2 [1]; ratio of h15-LOX-2 IC50 values): ~10 fold; IC50 (h15-LOX-2 [1]; [8]): 0.34 µM; IC50 (h15-LOX-2 [1]; [10]): 0.34 µM; IC50 (h15-LOX-2 [1]; [11]): 0.34 µM; substrate activity with h15-LOX-2 (h15-LOX-2 [6]): not substrates; IC50 (ovine COX-1): > 100 µM; IC50 (h5-LOX): > 100 µM; IC50 (human recombinant COX-2): > 100 µM"
98,0.87,CCc1ccc(CSc2nccn2-c2ccccc2)cc1 [Compound 107],"EC50 [3]: ~1 µM and 1.3 µM; Ki (h15-LOX-2 [4]; [9]): 0.9 µM; Ki (h15-LOX-2 [4]; equilibrium constant of dissociation from the secondary site, Dixon replot, 0.01% Triton X-100, read-out: Kiu): 3.4 µM; Redox (h15-LOX-2 [5]): No; IC50 (h15-LOX-1): > 50 µM; IC50 (h12-LOX): > 100 µM; IC50 (h15-LOX-2 [1]; [8]): 0.87 µM; IC50 (h15-LOX-2 [1]; [10]): 0.87 µM; IC50 (h15-LOX-2 [1]; [11]): 0.87 µM; substrate activity with h15-LOX-2 (h15-LOX-2 [6]): not substrates; IC50 (ovine COX-1): > 100 µM; IC50 (h5-LOX): > 100 µM; IC50 (human recombinant COX-2): > 100 µM"
31,> 50,Cc1ccccc1CSc1nccn1-c1ccccc1 [Compound 108],"potency against h15-LOX-2, SAR statement (h15-LOX-2 [1]): drastically decreased the potency"
39,> 50,Clc1cccc(CSc2nccn2-c2ccccc2)c1 [Compound 109],"potency against h15-LOX-2, SAR statement (h15-LOX-2 [1]): drastically decreased the potency"
51,> 25,O=C(CSc1nccn1-c1ccccc1)c1ccc(Br)cc1 [Compound 115],
8,> 100,O=C(CSc1nccn1-c1ccccc1)NCc1ccc(F)cc1 [Compound 117],

# Further lines, the compound ahead of its results:
SMILES,inhibition at 20 µM (h15-LOX-2 [1]) [%],IC50 (h15-LOX-2 [1]; [7]) [µM],further results
Brc1ccc(CSc2nccn2-c2ccccc2)cc1 [Compound 106],,,IC50 (h15-LOX-1): > 50 µM; IC50 (h12-LOX): > 100 µM; IC50 (ovine COX-1): > 100 µM; IC50 (h5-LOX): > 100 µM; IC50 (human recombinant COX-2): > 100 µM
c1ccc(CCSc2nccn2-c2ccccc2)cc1 [Compound 110],68,> 25,"potency against h15-LOX-2, SAR statement (h15-LOX-2 [1]): drastically decreased the potency"
O=C(CSc1nccn1-c1ccccc1)NO [Compound 111],4,> 100,
O=C(O)CCCSc1nccn1-c1ccccc1 [Compound 112],8,> 100,
Cc1ccc(C(=O)CSc2nccn2-c2ccccc2)cc1 [Compound 113],56,> 25,
O=C(CSc1nccn1-c1ccccc1)c1ccc(Cl)cc1 [Compound 114],62,> 25,
Cc1cc(C)cc(NC(=O)CSc2nccn2-c2ccccc2)c1 [Compound 116],0,> 100,
Cc1ccc(NC(=O)CSc2nccn2-c2ccccc2)cc1 [Compound 118],18,> 50,
Cc1ccc(C)c(-n2ccnc2SCC(=O)O)c1 [Compound 119],4,> 100,
Cc1cc(C)cc(-n2ccnc2SCC(=O)O)c1 [Compound 120],7,> 100,
Cc1cccc(-n2ccnc2SCC(=O)O)c1C [Compound 121],7,> 100,
Cc1ccccc1-n1ccnc1SCC(=O)O [Compound 122],8,> 100,
CC(C)c1ccc(-n2ccnc2SCC(=O)O)cc1 [Compound 123],13,> 100,
Cc1ccc(-n2ccnc2SCC(=O)O)cc1C [Compound 124],14,> 100,
Cc1ccc(-n2ccnc2SCC(=O)O)c(C)c1 [Compound 125],16,> 50,
Cc1cccc(-n2ccnc2SCC(=O)Nc2ccccc2C(F)(F)F)c1 [Compound 126],4,> 100,
Cc1cccc(-n2ccnc2SCC(=O)Nc2cc(C(F)(F)F)ccc2Cl)c1 [Compound 127],13,> 100,
